Bridges are numbered along the chain shown (N, C = ends). Where no end group is shown, it is not given here.
Assays:
MC3T3-E1 cells = test: ALP activity determination in MC3T3-E1 cells; assay type: cell-based, mouse
Description: Seven days after differentiation, the culture supernatant was removed from each plate and the cells were fixed with an acetone/ethanol solution. The ALP activity was determined using p-nitrophenyl phosphate as a substrate. Specifically, a carbonate buffer (5 mM MgCl2, 50 mM NaHCO3) containing p-nitrophenyl phosphate (Nacalai) (1 mg/mL) was added to each well (100 μL/well), followed by incubation at 37° C. Then, the OD value at 405 nm was determined with the use of a microplate reader (BMG Labtech) for each well.
Cells mixed with 10% FBS+αMEM (GIBCO) were seeded on a 96-well plate (8×10^3 cells/well) and a 48-well plate (2×10^4 cells/well). The culture supernatant of each plate was replaced with 10% FBS+αMEM containing 5 mM β glycerophosphoric acid (SIGMA)+10 μg/mL sodium ascorbate (SIGMA) 48 hours later. Then, the medium was replaced with new medium every 3 or 4 days. As a control, MC3T3-E1 was cultured with the use of 10% FBS+αMEM as a maintenance medium. Upon medium replacement, a peptide was added to each plate at a concentration of 300 μM, ALP activity determination and alizarin red S staining were carried out by the method described in Example 1 on Days 7 and 21.
MC3T3-E1 cells mixed with 10% FBS+αMEM (SIGMA) were seeded on a 96-well plate (1.5×10^4 cells/well). After 12 hours, the medium was removed therefrom and a medium containing an SB203580 p38 inhibitor (Calbiochem) was added thereto. […] Then, ALP activity determination was carried out by the method described in Example 1.
Similarly, rhDkk-1 (R&D) was added as a Wnt antagonist at concentrations of 0.25, 0.5, and 1 μg/ml. After 1 hour, 200 μM peptide D was added thereto, followed by culture for 5 days. Then, ALP activity determination was carried out by the method described in Example 1.
In addition, as described above, BMPR-IA (R&D) was added as a BMP antagonist at concentrations of 0.25 and 1 μg/ml. […] Then, ALP activity determination was carried out by the method described in Example 1. […] Based on the above results, it was likely that actions of peptide D depend on BMP induction or BMP produced constantly and spontaneously by cells.
MC3T3-E1 cells mixed with 10% FBS+α MEM (SIGMA) were seeded on a 96-well plate (1.5×10^4 cells/well).
Further, peptide D and peptide E were compared with each other in terms of ALP activity enhancement actions in MC3T3-E1 cells. Peptide D and peptide E were used at concentrations of 25, 50, 100, and 200 μM for culture under the conditions described in Example 14, followed by determination of ALP activity by the method described in Example 1.
MC3T3-E1 cells (mouse osteoblast precursor cells) mixed with 10% FBS+αMEM (SIGMA) were seeded on a 96-well plate (2×10^4 cells/well). After cell adhesion, the medium was removed therefrom, followed by ALP activity determination in the cases involving the addition of 50 and 150 μM peptide D (acetate and hydrochloride). […] On Day 5 after the addition of the individual factors, the culture supernatant was removed, followed by ALP activity determination by the method described in Example 1.
MC3T3-E1 cells (mouse osteoblast precursor cells) mixed with 10% FBS+αMEM (SIGMA) were seeded on a 96-well plate (2×10^4 cells/well). After cell adhesion had taken place, the medium was removed therefrom, followed by determination of ALP activity in the cases involving the mixing of 5 ng/mLBMP-2 (produced by CHO cells) with 6.25, 12.5, 25, 50, and 100 μM synthetic peptide D. On Day 5 after the addition of the individual factors, the culture supernatant was removed, followed by ALP activity determination by the method described in Example 1.
At the end of the experiment, synergistic effects of synthetic peptide D in the form of acetate and BMP-4 (R&D) were also examined. MC3T3-E1 cells (mouse osteoblast precursor cells) mixed with 10% FBS+αMEM (SIGMA) were seeded on a 96-well plate (2×10^4 cells/well). […]

RAW264 cells = test: TRAP activity in RAW264 cells with GST-RANKL; assay type: cell-based
Description: Peptide E (SEQ ID NO: 16) was prepared from peptide D with the substitution of a single amino acid. TRAP activity and ALP activity were determined to compare peptide D and peptide E in terms of effects of causing osteoclast differentiation and osteoblast differentiation. RAW264 cells mixed with 10% FBS+αMEM (SIGMA) were seeded on a 96-well plate (2×10^3 cells/well). After confirmation of cell adhesion, the medium was replaced with 10% FBS+αMEM containing 10 nM GST-RANKL (Oriental Yeast Co., Ltd.). Peptide D and peptide E were separately added thereto at concentrations of 25, 50, 100, and 200 μM, followed by culture for 4 days. After the termination of culture, 100 μL acetone/ethanol was added to each well for cell fixation, followed by drying in a draft for 30 min.
In order to obtain a TRAP solution buffer at a concentration of 1.5 mg/mL, a solution was prepared by adjusting p-nitrophenyl phosphate (Nacalai) with 50 mM citric acid buffer and adding a 0.2 M sodium tartrate solution in a volume 1/10 that of citric acid buffer. The obtained TRAP solution buffer was added to each well in an amount of 100 μL followed by incubation at 37° C. for 45 min. Then, a 1N NaOH solution (50 μL) was added thereto to terminate the reaction. The OD value at 405 nm was determined for each well with a microplate reader (BMG Labtech) in the same manner as in Example 1.
RAW264 cells mixed with 10% FBS+αMEM (SIGMA) were seeded on a 96-well plate (2×10^3 cells/well). After cell adhesion had taken place, the medium was replaced with 10% FBS+αMEM containing 5 nM GST-RANKL (Oriental Yeast Co., Ltd.). Peptide D in the form of TFA, peptide D in the form of acetate, and peptide D in the form of hydrochloride with concentrations of 25 and 100 μM were separately added thereto, followed by culture for 4 days. After the completion of culture, acetone/ethanol (100 μL) was added to each well for cell fixation, followed by drying in a draft for 30 min. TRAP activity determination was carried out by the method described in Example 16. […] Peptide D in the form of hydrochloride was confirmed to have neither osteoblast differentiation activity nor osteoclastgenesis inhibition activity. However, peptide D in the form of acetate was confirmed to have higher osteoblast differentiation activity and lower osteoclastgenesis inhibition activity compared with peptide D in the form of TFA. […] It is also possible to produce modified peptide D having osteoblast differentiation activity alone or modified peptide D having osteoclastgenesis inhibition activity alone.

peptide D: cyclic peptide of SEQ ID NO: 7, 9 amino acids, two cysteine residues bound via a disulfide bond; binds to RANKL (YCWSQYLCY; disulfide 2-8 (inferred))
ALP activity (MC3T3-E1 cells; 150 μM peptide D combined with 30 ng/mL BMP-2): additive actions of ALP activity enhancement | ALP activity (MC3T3-E1 cells; 300 μM, Day 7 after differentiation): significantly increased | ALP activity (MC3T3-E1 cells; 25, 50, 100 and 200 μM, 5 days): enhance ALP activity in a concentration-dependent manner | ALP activity, peptide D compared with peptide E (MC3T3-E1 cells; 50 and 100 μM): significant enhancement actions compared with peptide E | TRAP activity (RAW264 cells; 25, 50, 100 and 200 μM, 10 nM GST-RANKL, 4 days): inhibit TRAP activity | TRAP activity, peptide D compared with peptide E (RAW264 cells; 100 and 200 μM): significant inhibition actions compared with peptide E
